For 37 compounds, EC50 results are on record in patent US20230115534A1 (ARKUDA THERAPEUTICS, priority 2019, published 2023).

Where a name gives a salt, the structure may show the parent alone.

For the test, the system named is progranulin (PGRN). The test is described as follows: progranulin induction cellular assay (PGRN assay), ELISA-based readout. To be noted: PGRN assay as described: mouse primary microglia, primary cortical neurons and BV-2 cell lines; secreted mouse PGRN in medium by ELISA; cell type for Table B not specified. The method, then: Cellular Assays: To measure the efficacy of compounds, a progranulin induction cellular assay in mouse primary microglia (pMG), primary cortical neurons, and BV-2 cell lines is used. BV-2 cells are split the day before plating into a 96 well plate format at approximately 80%. Cells should be plated the day before and allowed for 1 hour attachment period and for 16 hour incubation. Levels of progranulin secreted into the cell culture medium or retained in the cell lysate can be quantified using an ELISA-based readout and measurement of secreted mouse PGRN in the medium was assessed by the methodology published by Ghidoni et al. 2012. Standard ELISA kits to measure PGRN are available from vendors such as Adipogen, R&D, and Biovendor.
Table B below presents the results of a PGRN assay as described above.
Turning to `O=C(NC12CC(N3CCS(=O)(=O)CC3)(C1)C2)N1CCc2ccccc2[C@@H]1c1ccc(F)cc1` [Compound 4021, (S)—N-(3-(1,1-dioxidothiomorpholino)bicyclo[1.1.1]pentan-1-yl)-1-(4-fluorophenyl)-3,4-dihydroisoquinoline-2(1H)-carboxamide], the 50% effective concentration (EC50) is more than 10000 nM.
In turn, `NC[C@@H]1CC[C@H]1OC(=O)N1CCc2ccccc2[C@@H]1c1ccc(F)cc1` [Compound 4123] gave an EC50 of more than 2100 nM.
In the case of `N[C@H]1C[C@@H](CNC(=O)N2CCc3ccccc3[C@@H]2c2ccc(F)cc2)C1` [Compound 4028, Cis-(S)—N-((3-aminocyclobutyl)methyl)-1-(4-fluorophenyl)-3,4-dihydroisoquinoline-2(1H)-carboxamide] it was 2320 nM; in that of `N[C@H]1C[C@@H](NC(=O)N2CCc3ccccc3[C@@H]2c2ccc(F)cc2)CC(F)(F)C1` (single isomer, unassigned) [Compound 4142], 810 nM; in that of `CN(C)[C@H]1C[C@@H](NC(=O)N2CCc3ccccc3[C@@H]2c2ccc(F)cc2)C1` [Compound 4068], 290 nM.
In the case of `N[C@H]1C[C@@H](COC(=O)N2CCc3ccccc3[C@@H]2c2ccc(F)cc2)C1` [Compound 4046, (Cis-3-aminocyclobutyl)methyl (S)-1-(4-fluorophenyl)-3,4-dihydroisoquinoline-2(1H)-carboxylate] it was 920 nM.
The value for `C[C@]1(N)C[C@H](NC(=O)N2CCc3ccccc3[C@@H]2c2ccc(F)cc2)C1` [Compound 4042, (S)—N-(trans-3-amino-3-methylcyclobutyl)-1-(4-fluorophenyl)-3,4-dihydroisoquinoline-2(1H)-carboxamide hydrochloride] was 59 nM; that for `CS(=O)(=O)CCNC12CC(NC(=O)N3CCc4ccccc4[C@@H]3c3ccc(F)cc3)(C1)C2` [Compound 4007, (S)-1-(4-fluorophenyl)-N-(3-((2-(methylsulfonyl)ethyl)amino)bicyclo[1.1.1]pentan-1-yl)-3,4-dihydroisoquinoline-2(1H)-carboxamide 2,2,2-trifluoroacetate] was more than 10000 nM; that for `NC12CC(OC(=O)N3CCc4ccccc4[C@@H]3c3ccccc3)(C1)C2` [Compound 4136, 3-aminobicyclo[1.1.1]pentan-1-yl (S)-1-phenyl-3,4-dihydroisoquinoline-2(1H)-carboxylate] was 604 nM.
For the compound `NC[C@H]1C[C@H](C(=O)N2CCc3ccccc3[C@@H]2c2ccc(F)cc2)C1` [Compound 4149, (trans-3-(aminomethyl)cyclobutyl)((S)-1-(4-fluorophenyl)-3,4-dihydroisoquinolin-2(1H)-yl)methanone], a half-maximal response (EC50) required 245 nM.
With `N[C@H]1C[C@H](CNC(=O)N2CCc3ccccc3[C@@H]2c2ccc(F)cc2)C1` [Compound 4029, Trans-(S)—N-((3-aminocyclobutyl)methyl)-1-(4-fluorophenyl)-3,4-dihydroisoquinoline-2(1H)-carboxamide], the EC50 came to 3400 nM. This EC50 lies about 14-fold higher than the previous one.
The value for `NC[C@H]1C[C@@H](OC(=O)N2CCc3ccccc3[C@@H]2c2ccc(F)cc2)C1` [Compound 4030, Cis-3-(aminomethyl)cyclobutyl (S)-1-(4-fluorophenyl)-3,4-dihydroisoquinoline-2(1H)-carboxylate] was 9640 nM; that for `N[C@H]1CC[C@@H](C(=O)N2CCc3ccccc3[C@@H]2c2ccc(F)cc2)CC1` [Compound 4143, cis-(S)-(4-aminocyclohexyl)(1-(4-fluorophenyl)-3,4-dihydroisoquinolin-2(1H)-yl)methanone] was 84 nM.
In the case of `N[C@@H]1CC[C@@H]1COC(=O)N1CCc2ccccc2[C@@H]1c1ccc(F)cc1` [Compound 4132, ((1S,2R)-2-aminocyclobutyl)methyl (S)-1-(4-fluorophenyl)-3,4-dihydroisoquinoline-2(1H)-carboxylate] it was 1010 nM; in that of `CC(C)(NC(=O)N1CCc2ccccc2C1c1ccc(F)cc1)C12CC(N)(C1)C2` [Compound 4050, (S)—N-(2-(3-aminobicyclo[1.1.1]pentan-1-yl)propan-2-yl)-1-(4-fluorophenyl)-3,4-dihydroisoquinoline-2(1H)-carboxamide hydrochloride], more than 10000 nM; in that of `CC(C)(OC(=O)N1CCc2ccccc2C1c1ccc(F)cc1)C12CC(N)(C1)C2` [Compound 4048, 2-(3-Aminobicyclo[1.1.1]pentan-1-yl)propan-2-yl (S)-1-(4-fluorophenyl)-3,4-dihydroisoquinoline-2(1H)-carboxylate], 1090 nM.
Turning to `NC[C@H]1CC[C@H]1OC(=O)N1CCc2ccccc2[C@@H]1c1ccc(F)cc1` [Compound 4065], the EC50 came out at 821 nM.
Consider `NC[C@H]1CC[C@@H]1OC(=O)N1CCc2ccccc2[C@@H]1c1ccc(F)cc1` [Compound 4064], for which the EC50 turned out to be 968 nM. The EC50 values of the last two compounds are within 1.5-fold of each other.
The value for `CN[C@H]1C[C@@H](N(C)C(=O)N2CCc3ccccc3[C@@H]2c2ccc(F)cc2)C1` [Compound 4067] was 913 nM; that for `N[C@H]1C[C@H](CC(=O)N2CCc3ccccc3[C@@H]2c2ccc(F)cc2)C1` [Compound 4122] was 208 nM.
In the case of `CNC12CC(OC(=O)N3CCc4ccccc4[C@@H]3c3ccc(F)cc3)(C1)C2` [Compound 4026, 3-(Methylamino)bicyclo[1.1.1]pentan-1-yl (S)-1-(4-fluorophenyl)-3,4-dihydroisoquinoline-2(1H)-carboxylate hydrochloride] it was 850 nM; in that of `NC[C@@H]1CC[C@@H]1OC(=O)N1CCc2ccccc2[C@@H]1c1ccc(F)cc1` [Compound 4124], 347 nM; in that of `CNC12CC(CC(=O)N3CCc4ccccc4C3c3ccc(F)cc3)(C1)C2` [Compound 4057, (S)-1-(1-(4-fluorophenyl)-3,4-dihydroisoquinolin-2(1H)-yl)-2-(3-(methylamino)bicyclo[1.1.1]pentan-1-yl)ethan-1-one], 1750 nM.
For `NC12CC(NC(=O)N3CCc4ccccc4[C@@H]3c3ccccc3)(C1)C2` [Compound 4135, (S)—N-(3-aminobicyclo[1.1.1]pentan-1-yl)-1-phenyl-3,4-dihydroisoquinoline-2(1H)-carboxamide], it took 1610 nM to reach a half-maximal effect (EC50).
The value for `CN(C)[C@H]1C[C@H](OC(=O)N2CCc3ccccc3[C@@H]2c2ccc(F)cc2)C1` [Compound 4128] was 319 nM.
As for `CS(=O)(=O)NC12CC(OC(=O)N3CCc4ccccc4[C@@H]3c3ccc(F)cc3)(C1)C2` [Compound 4018, 3-(Methylsulfonamido)bicyclo[1.1.1]pentan-1-yl (S)-1-(4-fluorophenyl)-3,4-dihydroisoquinoline-2(1H)-carboxylate], the EC50 was more than 10000 nM.
The value for `CS(=O)(=O)NC12CC(NC(=O)N3CCc4ccccc4[C@@H]3c3ccc(F)cc3)(C1)C2` [Compound 4017, (S)-1-(4-fluorophenyl)-N-(3-(methylsulfonamido)bicyclo[1.1.1]pentan-1-yl)-3,4-dihydroisoquinoline-2(1H)-carboxamide] was more than 10000 nM; that for `CNC12CC(N(C)C(=O)N3CCc4ccccc4[C@@H]3c3ccc(F)cc3)(C1)C2` [Compound 4009, (S)-1-(4-fluorophenyl)-N-methyl-N-(3-(methylamino)bicyclo[1.1.1]pentan-1-yl)-3,4-dihydroisoquinoline-2(1H)-carboxamide] was more than 10000 nM.
On to `NC12CC(OC(=O)N3CCc4ccccc4[C@@H]3c3ccc(F)cc3)(C1)C2` [Compound 4001, 3-Aminobicyclo[1.1.1]pentan-1-yl (S)-1-(4-fluorophenyl)-3,4-dihydroisoquinoline-2(1H)-carboxylate], for which the EC50 is 440 nM.
In the case of `N[C@@H]1C[C@H](NC(=O)N2CCc3ccccc3[C@@H]2c2ccc(F)cc2)CC(F)(F)C1` (single isomer, unassigned) [Compound 4141] it was 201 nM; in that of `NC12CC(NC(=O)N3CCc4ccccc4C3c3ccc(F)cc3F)(C1)C2` (single isomer, unassigned) [Compound 4138, N-(3-aminobicyclo[1.1.1]pentan-1-yl)-1-(2,4-difluorophenyl)-3,4-dihydroisoquinoline-2(1H)-carboxamide], 5590 nM.
The value for `O=C(NC12CC(NC(=O)C(F)(F)F)(C1)C2)N1CCc2ccccc2[C@@H]1c1ccc(F)cc1` [Compound 4019] was 2370 nM; that for `N[C@@H]1CC[C@@H]1CNC(=O)N1CCc2ccccc2[C@@H]1c1ccc(F)cc1` [Compound 4131] was 359 nM.
In turn, `CNC12CC(CCC(=O)N3CCc4ccccc4C3c3ccc(F)cc3)(C1)C2` [Compound 4058, (S)-1-(1-(4-fluorophenyl)-3,4-dihydroisoquinolin-2(1H)-yl)-3-(3-(methylamino)bicyclo[1.1.1]pentan-1-yl)propan-1-one hydrochloride] gave a concentration for a half-maximal effect (EC50) of 900 nM.
As to `N[C@H]1C[C@H](NC(=O)N2CCc3ccccc3[C@@H]2c2ccc(F)cc2)C1` [Compound 4035, (S)—N-(trans-3-aminocyclobutyl)-1-(4-fluorophenyl)-3,4-dihydroisoquinoline-2(1H)-carboxamide hydrochloride], the EC50 is 490 nM.
In the case of `N[C@H]1CC[C@@H]1COC(=O)N1CCc2ccccc2[C@@H]1c1ccc(F)cc1` [Compound 4134, ((1S,2S)-2-aminocyclobutyl)methyl (S)-1-(4-fluorophenyl)-3,4-dihydroisoquinoline-2(1H)-carboxylate] it was 1290 nM; in that of `C#CCNC12CC(N(CC#C)C(=O)N3CCc4ccccc4[C@@H]3c3ccc(F)cc3)(C1)C2` [Compound 4006, (S)-1-(4-fluorophenyl)-N-(prop-2-yn-1-yl)-N-(3-(prop-2-yn-1-ylamino)bicyclo[1.1.1]pentan-1-yl)-3,4-dihydroisoquinoline-2(1H)-carboxamide], more than 10000 nM.

Broadly, the EC50 is the concentration needed to bring the measured effect to its halfway point. High values mean a less potent agent, low ones a more potent agent.
